Measured values: US11560370B1, “5-membered heteroaryl carboxamide compounds for treatment of HBV” (Assembly Biosciences, Inc., priority 2018, dated 2023)
Where two headings read alike, the source gives them in different places.

Tested on: HBV
Test: Viral production from HepAD38 cells, viral load by qPCR of HBV core sequence
Type: cell-based
Conditions: 5 days, supernatant HBV DNA by qPCR, read-out: Viral Load EC50 Activity range
Procedure, shortened: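 HepAD38 cells in tetracycline-free medium with 2% FBS, 50,000 cells/well, treated 5 days at 37° C. with compound from 10 μM top concentration (1% DMSO final). Supernatant HBV DNA measured by TaqMan qPCR of core sequence against standards, versus DMSO wells; viability by CellTiter-Glo; EC50/CC50 by four-parameter fit.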

[1] = Hepatitis B virus, HePAD38, 120 h

SMILES | EC50 [µM] | EC50 [1] [µM]
Cn1nc([C@@H]2CC3CC(O)(CS(C)(=O)=O)C[C@@H]3C2)c(C(=O)Nc2ccc(F)c(Cl)c2)c1N (some centres unmarked) [AIA-227-1, 5-Amino-N-(3-chloro-4-fluorophenyl)-3-((2r,5r)-5-hydroxy-5-(methylsulfonylmethyl)octahydropentalen-2-yl)-1-methyl-1H-pyrazole-4-carboxamide] | < 0.1 | –
Cn1nc(C2CC3CC4(CNC(=O)C4)CC3C2)c(C(=O)Nc2ccc(F)c(Cl)c2)c1N (centres unmarked) [HBV-AIA-039] | < 0.1 | –
COc1cc(-c2nccs2)ccc1C1CCC(c2nn(C)c(N)c2C(=O)Nc2ccc(F)c(Cl)c2)C1 (centres unmarked) [AIA-371, 5-Amino-N-(3-chloro-4-fluorophenyl)-3-(3-(2-methoxy-4-(thiazol-2-yl)phenyl)cyclopentyl)-1-methyl-1H-pyrazole-4-carboxamide] | – | 0.5 to 10
CC(=O)N1CC2CC(c3nn(C)c(N)c3C(=O)Nc3ccc(F)c(Cl)c3)CC2C1 (centres unmarked) [AIA-007] | < 0.1 | –
Cn1nc(C2CCC(c3ccccc3)C2)c(C(=O)Nc2ccc(F)c(C#N)c2)c1N (centres unmarked) [AIA-279, 5-Amino-N-(3-cyano-4-fluorophenyl)-1-methyl-3-(3-phenylcyclopentyl)-1H-pyrazole-4-carboxamide] | – | < 0.1
